Some results are limits rather than exact numbers.

For assay [1], the system named is Dengue 1 virus MY97-10245. As to the kind of experiment: High-content imaging cell-based flavivirus immunodetection (HCl-CFI) assay, Dengue 1. Particulars: Dengue virus, A549, 48 h, read-out: Dengue 1 virus MY97-10245 in A549 using HCl [Inhibitor/IC50] Qualified AC50.
The test system of assay [2] is Dengue 2 virus MY97-10340. As to the kind of experiment: High-content imaging cell-based flavivirus immunodetection (HCl-CFI) assay, Dengue 2. Particulars: Dengue virus, A549, 48 h, read-out: Dengue 2 virus MY97-10340 in A549 using HCl [Inhibitor/IC50] Qualified AC50, A549 cells, MOI 0.3, 48 h, viral E protein expression. A digest of the protocol: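 A549 cells infected at MOI 0.3, treated with 3-fold, 10-point compound dilutions for 48 h. After paraformaldehyde fixation, viral E protein immunostained with 4G2 antibody and nuclei counterstained; imaged by high-content imaging. EC50 = concentration reducing E protein expression by 50%, from dose-response curves.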

Assay [3] concerns Dengue 4 virus MY01-22713. As to the kind of experiment: High-content imaging cell-based flavivirus immunodetection (HCl-CFI) assay, Dengue 4. The settings on record: Dengue virus, A549, 48 h, read-out: Dengue 4 virus MY01-22713 in A549 using HCl [Inhibitor/IC50] Qualified AC50, A549 cells, 48 h, viral E protein expression.
Assay [4] concerns Dengue 3 virus MY05-34640-WT-C6/36. As to the kind of experiment: High-content imaging cell-based flavivirus immunodetection (HCl-CFI) assay, Dengue 3. Particulars: Dengue virus, A549, 48 h, read-out: Dengue 3 virus MY05-34640-WT-C6/36 in A549 using HCl [Inhibitor/IC50] Qualified AC50.

Regarding `N#Cc1c(NC(=O)Cc2ccc(S(N)(=O)=O)cc2)sc2c1CCN(Cc1cc(F)cc(F)c1)C2` [Example 93, N-(3-cyano-6-(3,5-difluorobenzyl)-4,5,6,7-tetrahydrothieno[2,3-c]pyridin-2-yl)-2-(4-sulfamoylphenyl) acetamide], the EC50 in assay [1] was 100 to 1000 nM; in assay [2], below 100 nM; in assay [3], below 100 nM; in assay [4], below 100 nM.
As for `COc1ccccc1CN1CCc2c(sc(NC(=O)Cc3ccc(S(N)(=O)=O)cc3)c2C#N)C1` [Example 94, N-(3-cyano-6-(2-methoxybenzyl)-4,5,6,7-tetrahydrothieno[2,3-c]pyridin-2-yl)-2-(4-sulfamoylphenyl) acetamide], the EC50 in assay [1] was above 1000 nM; in assay [2], above 1000 nM; in assay [3], 100 to 1000 nM; in assay [4], 100 to 1000 nM.
In the case of `Cc1cccc(CN2CCc3c(sc(NC(=O)Cc4ccc(S(N)(=O)=O)cc4)c3C#N)C2)c1C` [Example 95, N-(3-cyano-6-(2,3-dimethylbenzyl)-4,5,6,7-tetrahydrothieno[2,3-c]pyridin-2-yl)-2-(4-sulfamoylphenyl) acetamide], the EC50 in assay [1] was 100 to 1000 nM; in assay [2], 100 to 1000 nM; in assay [3], below 100 nM; in assay [4] it was below 100 nM.
For the compound `Cc1ccccc1CN1CCc2c(sc(NC(=O)Cc3ccc(S(N)(=O)=O)cc3)c2C#N)C1` [Example 97, N-(3-cyano-6-(2-methylbenzyl)-4,5,6,7-tetrahydrothieno[2,3-c]pyridin-2-yl)-2-(4-sulfamoylphenyl)acetamide], the EC50 in assay [1], in assay [2], in assay [3] and in assay [4] was 100 to 1000 nM throughout.
Regarding `Cc1ccc(CN2CCc3c(sc(NC(=O)Cc4ccc(S(N)(=O)=O)cc4)c3C#N)C2)cc1` [Example 98, N-(3-cyano-6-(4-methylbenzyl)-4,5,6,7-tetrahydrothieno[2,3-c]pyridin-2-yl)-2-(4-sulfamoylphenyl)acetamide], the EC50 was above 1000 nM in assay [1], 100 to 1000 nM in assay [2], 100 to 1000 nM in assay [3] and 100 to 1000 nM in assay [4].
As to `N#Cc1c(NC(=O)Cc2ccc(S(N)(=O)=O)cc2)sc2c1CCN(Cc1ccccc1F)C2` [Example 99, N-(3-cyano-6-(2-fluorobenzyl)-4,5,6,7-tetrahydrothieno[2,3-c]pyridin-2-yl)-2-(4-sulfamoylphenyl)acetamide], the EC50 is above 1000 nM in assay [1], 100 to 1000 nM in assay [2], 100 to 1000 nM in assay [3] and 100 to 1000 nM in assay [4].
Turning to `N#Cc1c(NC(=O)Cc2ccc(S(N)(=O)=O)cc2)sc2c1CCN(Cc1ccc(F)cc1)C2` [Example 101, N-(3-cyano-6-(4-fluorobenzyl)-4,5,6,7-tetrahydrothieno[2,3-c]pyridin-2-yl)-2-(4-sulfamoylphenyl)acetamide], the EC50 was 100 to 1000 nM in assay [1], 100 to 1000 nM in assay [2], below 100 nM in assay [3] and 100 to 1000 nM in assay [4].
Turning to `Cc1cccc(CN2CCc3c(sc(NC(=O)Cc4ccc(S(N)(=O)=O)cc4)c3C#N)C2)c1` [Example 102, N-(3-cyano-6-(3-methylbenzyl)-4,5,6,7-tetrahydrothieno[2,3-c]pyridin-2-yl)-2-(4-sulfamoylphenyl)acetamide], the EC50 in assay [1] was above 1000 nM; in assay [2], 100 to 1000 nM; in assay [3], 100 to 1000 nM; in assay [4], 100 to 1000 nM.
As for `Cc1ccccc1CN1CCc2c(sc(NC(=O)Cc3ccc(S(C)(=O)=O)cc3)c2C#N)C1` [Example 103, N-(3-cyano-6-(2-methylbenzyl)-4,5,6,7-tetrahydrothieno[2,3-c]pyridin-2-yl)-2-(4-(methylsulfonyl)phenyl)acetamide], the EC50 in assay [1], in assay [2], in assay [3] and in assay [4] was 100 to 1000 nM in each case.
Turning to `Cc1cccc(CN2CCc3c(sc(NC(=O)Cc4ccc(S(C)(=O)=O)cc4)c3C#N)C2)c1` [Example 104, N-(3-cyano-6-(3-methylbenzyl)-4,5,6,7-tetrahydrothieno[2,3-c]pyridin-2-yl)-2-(4-(methylsulfonyl)phenyl)acetamide], the EC50 is above 1000 nM in assay [1], 100 to 1000 nM in assay [2], below 100 nM in assay [3] and 100 to 1000 nM in assay [4].
Take `N#Cc1c(NC(=O)Cc2ccc(S(N)(=O)=O)cc2)sc2c1CCN(Cc1ccc(F)c(F)c1)C2` [Example 105, N-(3-cyano-6-(3,4-difluorobenzyl)-4,5,6,7-tetrahydrothieno[2,3-c]pyridin-2-yl)-2-(4-sulfamoylphenyl)acetamide]: the EC50 is above 1000 nM in assay [1], 100 to 1000 nM in assay [2], 100 to 1000 nM in assay [3] and 100 to 1000 nM in assay [4].
Turning to `N#Cc1c(NC(=O)Cc2ccc(S(N)(=O)=O)cc2)sc2c1CCN(Cc1cccc(F)c1F)C2` [Example 106, N-(3-cyano-6-(2,3-difluorobenzyl)-4,5,6,7-tetrahydrothieno[2,3-c]pyridin-2-yl)-2-(4-sulfamoylphenyl)acetamide], the EC50 in assay [1] is 100 to 1000 nM; in assay [2] it was below 100 nM; in assay [3], below 100 nM; in assay [4] it was below 100 nM.
For `N#Cc1c(NC(=O)Cc2ccc(S(N)(=O)=O)cc2)sc2c1CCN(Cc1ccc(F)cc1Cl)C2` [Example 107, N-(6-(2-chloro-4-fluorobenzyl)-3-cyano-4,5,6,7-tetrahydrothieno[2,3-c]pyridin-2-yl)-2-(4-sulfamoylphenyl)acetamide], the EC50 in assay [1] is 100 to 1000 nM; in assay [2] it was 100 to 1000 nM; in assay [3], below 100 nM; in assay [4], 100 to 1000 nM.
Consider `COC(=O)c1cccc(CN2CCc3c(sc(NC(=O)Cc4ccc(S(N)(=O)=O)cc4)c3C#N)C2)c1` [Example 108, Methyl 3-((3-cyano-2-(2-(4-sulfamoylphenyl)acetamido)-4,7-dihydrothieno[2,3-c]pyridin-6(5H)-yl)methyl)benzoate], for which the EC50 was 100 to 1000 nM in assay [1], below 100 nM in assay [2], below 100 nM in assay [3] and below 100 nM in assay [4].
Take `Cc1cc(C)cc(CN2CCc3c(sc(NC(=O)Cc4ccc(S(N)(=O)=O)cc4)c3C#N)C2)c1` [Example 110, N-(3-cyano-6-(3,5-dimethylbenzyl)-4,5,6,7-tetrahydrothieno[2,3-c]pyridin-2-yl)-2-(4-sulfamoylphenyl)acetamide]: the EC50 is 100 to 1000 nM in assay [1], below 100 nM in assay [2], below 100 nM in assay [3] and below 100 nM in assay [4].
As for `N#Cc1c(NC(=O)Cc2ccc(S(N)(=O)=O)cc2)sc2c1CCN(Cc1c(F)cccc1Cl)C2` [Example 111, N-(6-(2-chloro-6-fluorobenzyl)-3-cyano-4,5,6,7-tetrahydrothieno[2,3-c]pyridin-2-yl)-2-(4-sulfamoylphenyl)acetamide], the EC50 in assay [1] is 100 to 1000 nM; in assay [2], below 100 nM; in assay [3], below 100 nM; in assay [4] it was below 100 nM.
Consider `N#Cc1c(NC(=O)Cc2ccc(S(N)(=O)=O)cc2)sc2c1CCN(Cc1c(Cl)cccc1Cl)C2` [Example 112, N-(3-cyano-6-(2,6-dichlorobenzyl)-4,5,6,7-tetrahydrothieno[2,3-c]pyridin-2-yl)-2-(4-sulfamoylphenyl)acetamide], for which the EC50 in assay [1] is above 1000 nM; in assay [2] it was 100 to 1000 nM; in assay [3], below 100 nM; in assay [4], 100 to 1000 nM.

Values taken from patent US12012417B2, “N-substituted tetrahydrothienopyridine derivatives and uses thereof” (NOVARTIS AG, priority 2018, dated 2024).
